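Tested at 5 concentrations; 48 h exposure; 96-well plates; endpoints linearly interpolated, else capped at highest concentration. TGI: total growth inhibition.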
Experiments:
Test in all cases: NCI tumour cell line growth inhibition, 48 h
NCI-H226 lung = system: NCI-H226 lung
NCI-H23 lung = system: NCI-H23 lung
SF-539 CNS = system: SF-539 CNS
MCF7 breast = system: MCF7 breast
P388 leukemia = system: P388 leukemia
HCT-116 colon = system: HCT-116 colon
SK-MEL-2 melanoma = system: SK-MEL-2 melanoma
DMS 273 small cell lung = system: DMS 273 small cell lung
LOX IMVI melanoma = system: LOX IMVI melanoma
HOP-62 NSCLC = system: HOP-62 NSCLC
MALME-3M melanoma = system: MALME-3M melanoma
SK-OV-3 ovarian = system: SK-OV-3 ovarian
SF-268 CNS = system: SF-268 CNS
SF-295 CNS = system: SF-295 CNS
NCI-H522 lung = system: NCI-H522 lung
U251 CNS = system: U251 CNS
SK-MEL-5 melanoma = system: SK-MEL-5 melanoma
RXF 393 renal = system: RXF 393 renal
HOP-92 NSCLC = system: HOP-92 NSCLC
OVCAR-8 ovarian = system: OVCAR-8 ovarian
NCI-H460 lung = system: NCI-H460 lung
KM20L2 colon = system: KM20L2 colon
COLO 205 colon = system: COLO 205 colon
HOP-18 NSCLC = system: HOP-18 NSCLC
SW-620 colon = system: SW-620 colon
SK-MEL-28 melanoma = system: SK-MEL-28 melanoma
OVCAR-3 ovarian = system: OVCAR-3 ovarian
CCRF-CEM leukemia = system: CCRF-CEM leukemia
OVCAR-4 ovarian = system: OVCAR-4 ovarian
KM12 colon = system: KM12 colon
HCT-15 colon = system: HCT-15 colon
NCI/ADR-RES ovarian = system: NCI/ADR-RES ovarian
SN12C renal = system: SN12C renal
HL-60(TB) leukemia = system: HL-60(TB) leukemia
HCC-2998 colon = system: HCC-2998 colon
CAKI-1 renal = system: CAKI-1 renal
A549 NSCLC = system: A549 NSCLC
UO-31 renal = system: UO-31 renal
SNB-19 CNS = system: SNB-19 CNS
SNB-75 CNS = system: SNB-75 CNS
SN12K1 renal = system: SN12K1 renal
UACC-62 melanoma = system: UACC-62 melanoma
HT29 colon = system: HT29 colon
DLD-1 colon = system: DLD-1 colon
IGROV1 ovarian = system: IGROV1 ovarian
XF 498 CNS = system: XF 498 CNS

O=c1ccn([C@@H]2C=C(CO)[C@@H](O)[C@H]2O)c(=O)[nH]1
TGI (NCI-H226 lung): > 625 µM
TGI (NCI-H23 lung): > 625 µM
TGI (SF-539 CNS): > 625 µM
TGI (MCF7 breast): > 625 µM
TGI (P388 leukemia): > 625 µM
TGI (HCT-116 colon): > 625 µM
TGI (SK-MEL-2 melanoma): > 625 µM
TGI (DMS 273 small cell lung): > 625 µM
TGI (LOX IMVI melanoma): > 625 µM
TGI (HOP-62 NSCLC): > 625 µM
TGI (MALME-3M melanoma): > 625 µM
TGI (SK-OV-3 ovarian): > 625 µM
TGI (SF-268 CNS): > 625 µM
TGI (SF-295 CNS): > 625 µM
TGI (NCI-H522 lung): > 625 µM
TGI (U251 CNS): > 625 µM
TGI (SK-MEL-5 melanoma): > 625 µM
TGI (RXF 393 renal): > 625 µM
TGI (HOP-92 NSCLC): > 625 µM
TGI (OVCAR-8 ovarian): > 625 µM
TGI (NCI-H460 lung): > 625 µM
TGI (KM20L2 colon): > 625 µM
TGI (COLO 205 colon): > 625 µM
TGI (HOP-18 NSCLC): > 625 µM
TGI (SW-620 colon): > 625 µM
TGI (SK-MEL-28 melanoma): > 625 µM
TGI (OVCAR-3 ovarian): > 625 µM
TGI (CCRF-CEM leukemia): > 625 µM
TGI (OVCAR-4 ovarian): > 625 µM
TGI (KM12 colon): > 625 µM
TGI (HCT-15 colon): > 625 µM
TGI (NCI/ADR-RES ovarian): > 625 µM
TGI (SN12C renal): > 625 µM
TGI (HL-60(TB) leukemia): > 625 µM
TGI (HCC-2998 colon): > 625 µM
TGI (CAKI-1 renal): > 625 µM
TGI (A549 NSCLC): > 625 µM
TGI (UO-31 renal): > 625 µM
TGI (SNB-19 CNS): > 625 µM
TGI (SNB-75 CNS): 431 µM
TGI (SN12K1 renal): > 625 µM
TGI (UACC-62 melanoma): > 625 µM
TGI (HT29 colon): > 625 µM
TGI (DLD-1 colon): > 625 µM
TGI (IGROV1 ovarian): > 625 µM
TGI (XF 498 CNS): < 0.0625 µM

— PubChem BioAssay (NCI)
